Reference: the CATMoS acute toxicity set (Mansouri et al. 2021)

Assay: GHS categories as the set defines them, by LD50: 1 up to 5, 2 up to 50, 3 up to 300, 4 up to 2000, 5 above 2000 mg/kg
Conditions: rat; in vivo; po

Cn1c(CCCC(=O)O)nc2cc(N(CCCl)CCCl)ccc21
GHS category: 3

Cc1cc(O)c2c(O)c(-c3ccc4cc(C)cc(O)c4c3O)ccc2c1
GHS category: 5

CC(C#N)c1cccc(C(=O)c2ccccc2)c1 (stereo unspecified)
GHS category: 4

COc1cc(Cl)c(OC)cc1Cl
GHS category: 5

CCCCOC(=O)Cc1ccccc1
GHS category: 5

Cc1ccccc1OC(=O)c1ccccc1OC(N)=O
GHS category: 5

CCCC1(C)COC(Cn2cncn2)(c2cc3ccccc3o2)OC1 (stereo unspecified)
GHS category: 4

FC(F)(F)N1C(F)(F)C(F)(F)OC(F)(F)C1(F)F
GHS category: 5

CCSc1nc(N)c2c(C)coc2n1
GHS category: 5

CC1=CC[C@H](CC=O)C1(C)C
GHS category: 5

COC(=O)Cc1c(C(=O)OC)sc(N)c1C#N
GHS category: 5

CC(C)=CCCC(C)C=O (stereo unspecified)
GHS category: 5

CNc1ccc(C(=O)c2cccs2)cc1O
GHS category: 5

CCc1cccc(OP(=O)(Oc2cccc(CC)c2)Oc2cccc(CC)c2)c1
GHS category: 5

CCCCCCCCC(=O)O
GHS category: 5

CCCCCCCC/C=C\CCCCCCCC(=O)OCC(C)(C)COC(=O)CCCCCCC/C=C\CCCCCCCC
GHS category: 5

Cc1c(Cc2ccc(-c3ccccc3-c3nn[nH]n3)cc2)c(=O)nc2nc[nH]n12
GHS category: 4

CC(C)=CCN(CC=C(C)C)CCC(C#N)c1cccc2ccccc12 (stereo unspecified)
GHS category: 4

CCCC/C=C\CCCCCCCCCC=O
GHS category: 5

NC(=O)CCNCCO
GHS category: 5

CCCCCCC(C)C=O (stereo unspecified)
GHS category: 5

COc1n[nH]c(=O)n1C
GHS category: 5

CCN1CCN(C(=O)N[C@@H](C(=O)N[C@@H]2C(=O)N3[C@@H]2SC(C)(C)[C@H]3C(=O)O)c2ccccc2)C(=O)C1=O
GHS category: 5

CCCCC(CC)COC(=O)OCC(CC)CCCC (stereo unspecified)
GHS category: 5

CC(C)=CCCC(C)=C1CC=C(C)CC1
GHS category: 5

COC(=O)CC#N
GHS category: 5

O=C(CCc1ccc(O)cc1)Nc1ccccc1C(=O)O
GHS category: 5

CC(C)(N=C=O)c1ccc(C(C)(C)N=C=O)cc1
GHS category: 5

COc1cc2nc(N3CCN(C(=O)C4COc5ccccc5O4)CC3)nc(N)c2cc1OC (stereo unspecified)
GHS category: 5

CNC(=O)c1c(I)c(NC(=O)CCCCC(=O)Nc2c(I)c(C(=O)O)c(I)c(C(=O)NC)c2I)c(I)c(C(=O)O)c1I
GHS category: 5

CC(=O)N(CC(O)CO)c1c(I)c(C(=O)NCC(O)CO)c(I)c(C(=O)NCC(O)CO)c1I (stereo unspecified)
GHS category: 5

COc1cc(CC2NCCc3cc(O)c(O)cc32)cc(OC)c1OC (stereo unspecified)
GHS category: 5

C#CCON=CC1=CCCN(C)C1
GHS category: 3

O=C1NC(=O)C(c2ccccc2)(c2ccc(O)cc2)N1 (stereo unspecified)
GHS category: 5

CCn1cc(C(=O)O)c(=O)c2cnc(N3CCCC3)nc21
GHS category: 5

N[C@@H](CSSC[C@H](N)C(=O)O)C(=O)O
GHS category: 5

CCCCCCC1CCCC1=O (stereo unspecified)
GHS category: 5

CCCCCCCCCCCCCOC(=O)c1ccccc1C(=O)OCCCCCCCCCCCCC
GHS category: 5

O=C1c2ccccc2C(=O)c2c(O)ccc(O)c21
GHS category: 5

CC(=O)NC(C(=O)O)C(C)(C)S (stereo unspecified)
GHS category: 4

C=CC(=C)CCC=C(C)CCC=C(C)C=O
GHS category: 5

C#CCOc1cc(-n2nc(C(C)(C)C)oc2=O)c(Cl)cc1Cl
GHS category: 5

CS(=O)(=O)c1ccc(C(=O)C2C(=O)CCCC2=O)c([N+](=O)[O-])c1
GHS category: 5

Cc1cccc2ncc(C(=O)NC3CCCCCC3)c(=O)n12
GHS category: 3

O=C1CCCCCN1C(=O)NCCCCCCNC(=O)N1CCCCCC1=O
GHS category: 5

CCCCC1C(=O)N(c2cccc(O)c2)N(c2cccc(O)c2)C1=O
GHS category: 4

Cc1cccc2c1NC(=O)C2(c1ccc(OS(=O)(=O)O)cc1)c1ccc(OS(=O)(=O)O)cc1
GHS category: 5

CN(C)C1=NC(=O)C(c2ccccc2)O1 (stereo unspecified)
GHS category: 5

COc1ccc(CCN(C(=O)CCCSc2nnnn2C)C2CCCCC2)cc1OC
GHS category: 4

CCCCCCC(O)CCO (stereo unspecified)
GHS category: 5

S=C(SSSSSSC(=S)N1CCCCC1)N1CCCCC1
GHS category: 5

O=S1OCC(CCl)O1 (stereo unspecified)
GHS category: 2

C[C@]12CC[C@H]3[C@@H](CCC4=CC(=O)C=C[C@@]43C)[C@@H]1CC[C@H]2O
GHS category: 5

CC(=O)c1ccc2c(c1)oc(=O)n2C
GHS category: 5

CC(C)C[C@H](N)C(=O)O
GHS category: 5

COC(=O)c1c(C)nc(C)c(C(=O)O)c1-c1cc([N+](=O)[O-])ccc1F
GHS category: 5

CCCCCOc1ccc(-c2ccc(C#N)cc2)cc1
GHS category: 5

CCC[C@H]1CCO[C@@H](C)S1
GHS category: 5

CCC(=O)OCC(=O)[C@@]1(OC(=O)CC)[C@@H](C)C[C@H]2[C@@H]3CCC4=CC(=O)C=C[C@]4(C)[C@@]3(F)[C@@H](O)C[C@@]21C
GHS category: 5

Cc1cc(C(=O)Nc2ccccc2C)n[nH]1
GHS category: 5

C/C(=C(\CCOC(=O)C(C)C)SS/C(CCOC(=O)C(C)C)=C(/C)N(C=O)Cc1cnc(C)nc1N)N(C=O)Cc1cnc(C)nc1N
GHS category: 5

N#CCN(CC#N)CC#N
GHS category: 3

CNC(=O)C(=NNc1ccccc1Cl)C(C)=O
GHS category: 5

C=COCCOCCOCCOC=C
GHS category: 5

CC(=O)OCC(=O)[C@@]1(OC(C)=O)CC[C@H]2[C@@H]3C[C@@H](F)C4=CC(=O)C(Br)=C[C@]4(C)[C@@]3(F)[C@@H](O)C[C@@]21C
GHS category: 5

O=C1C(O)N=C(c2ccccc2)c2cc(Cl)ccc2N1CC1CC1 (stereo unspecified)
GHS category: 5

CS/C(=N\O)C(=O)N(C)C
GHS category: 5

COc1ccc2c(c1)c(CC(=O)NC1CCCC1)c(C)n2C(=O)c1ccc(Cl)cc1
GHS category: 5

NS(=O)(=O)c1cc2c(cc1Cl)NC(Cc1ccccc1)NS2(=O)=O (stereo unspecified)
GHS category: 5

OC(Cn1ccnc1)c1ccc(CCc2ccccc2)cc1 (stereo unspecified)
GHS category: 5

CC(=O)OCC(=O)[C@@]1(O)CC[C@H]2[C@@H]3CCC4=CC(=O)CC[C@]4(C)[C@@]3(F)[C@@H](O)C[C@@]21C
GHS category: 4

CCCCCCCCCCCCCCCCCC(=O)OC[C@@H](OC(=O)CCCCCCCCCCCCCCCCC)[C@H]1OC[C@H](O)[C@H]1OC(=O)CCCCCCCCCCCCCCCCC
GHS category: 5

CCCCCC(=O)Nc1ccc(Cc2ccccn2)c([N+](=O)[O-])c1
GHS category: 3

FC(F)CNCc1ccc(Cl)nc1
GHS category: 5

O=C(Nc1ccc2[nH]c(=O)[nH]c2c1)c1cc2ccccc2c(N=Nc2cc(Cl)ccc2Cl)c1O
GHS category: 5

CC1NC(=S)C(C(O)O)C(O)C1C (stereo unspecified)
GHS category: 5

CN[C@@H]1[C@@H](O)[C@@H](O[C@@H]2[C@@H](O)[C@H](O[C@H]3O[C@H](CN)[C@@H](O)[C@H](O)[C@H]3O)[C@@H](N)C[C@H]2NC(=O)C(O)CN)OC[C@]1(C)O (stereo partly specified)
GHS category: 5

CCOC(=O)c1cnn(C)c1S(=O)(=O)NC(=O)Nc1nc(OC)cc(OC)n1
GHS category: 5

CC(C)CCCCCCCOCCC#N
GHS category: 5

CC(C)(c1ccccc1)C(C)(C)c1ccccc1
GHS category: 5

CCOP(=S)(OCC)ON=C(C#N)c1ccccc1Cl
GHS category: 5

c1ccc(OCCOc2ccccc2)cc1
GHS category: 5

CC(C)(CO)c1cc(Cl)nnc1Cl
GHS category: 4

FC(F)(F)OC(F)(Cl)C(F)(F)Cl (stereo unspecified)
GHS category: 5

CCOC(=O)c1nn(-c2ccc(OC)cc2)c2c1CCN(c1ccc(N3CCCCC3=O)cc1)C2=O
GHS category: 5

CNc1nc(Nc2ccc(C=Cc3ccc(Nc4nc(NC)nc(N(CCO)CCO)n4)cc3S(=O)(=O)O)c(S(=O)(=O)O)c2)nc(N(CCO)CCO)n1
GHS category: 5

CNC(=O)Oc1cccc2c1OC(C)O2 (stereo unspecified)
GHS category: 3

CC(C)=CCC(C#N)(CCN1CCCC1)c1cccc2ccccc12 (stereo unspecified)
GHS category: 4

C[C@H]1CO[C@@](Cn2cncn2)(c2cc3ccccc3o2)O1
GHS category: 4

CCCCCCCCCCCCCCCCOC(=O)OOC(=O)OCCCCCCCCCCCCCCCC
GHS category: 5

CCC(CC)Nc1nnc(-c2ccccc2)c2ccccc12
GHS category: 5

O=c1n(CCO)c(=O)n(CCO)c(=O)n1CCO
GHS category: 5

CCC1=NN(C(=O)NC(=O)c2ccc(Cl)cc2)C(C)(CC)C1 (stereo unspecified)
GHS category: 5

CC(=O)O[C@@H]1C[C@H](C)CC[C@H]1C(C)C
GHS category: 5

CCS(=O)(=O)CCC(=O)NNC(=O)N1Cc2ccccc2Oc2ccc(Cl)cc21
GHS category: 5

CCNC(=O)NCc1cccc(Cl)c1
GHS category: 5

CCN(CC)CCC(C#N)(CC=C(C)C)c1cccc2ccccc12 (stereo unspecified)
GHS category: 4

O=C1Cc2cccc(F)c2N1
GHS category: 4

Cc1cc(C(=O)NCCc2ccc(S(=O)(=O)NC(=O)NC3CCCCC3)cc2)no1
GHS category: 5

CC(CO)COC1CC2CCC1(C)C2(C)C (stereo unspecified)
GHS category: 5

C=C(C)C(C)(C)Cc1ccc(Nc2ccc(CC(C)(C)C(=C)C)cc2)cc1
GHS category: 5

COc1ccc(-c2ccc(C#N)cc2)cc1
GHS category: 5

CCC(C(=O)Oc1ccccc1OC)c1ccc(-c2ccccc2)cc1 (stereo unspecified)
GHS category: 5

Cc1ccc2c([nH]c(=O)c3c(=O)cc(C(=O)OCCC(C)C)oc32)c1C
GHS category: 5

CCCC1O[C@@H]2C[C@H]3[C@@H]4CCC5=CC(=O)C=C[C@]5(C)[C@H]4[C@@H](O)C[C@]3(C)[C@]2(C(=O)CO)O1 (stereo partly specified)
GHS category: 5

OCCCCSc1ccc(Cl)cc1
GHS category: 4

C=CCCCCCCCCC=O
GHS category: 5

CS/C(C)=N/O
GHS category: 4

CC(C)(C)C(=O)OCOC(=O)[C@@H]1N2C(=O)[C@@H](NC(=O)[C@H](N)c3ccccc3)[C@H]2SC1(C)C
GHS category: 5

C#CCN1C(=O)CCc2c(OCCCN3CCC(Cc4ccccc4)CC3)cccc21
GHS category: 4

Cc1cc(C(C)(CC(=O)OCCOC(=O)CC(C)(c2ccc(O)c(C(C)(C)C)c2)c2ccc(O)c(C(C)(C)C)c2)c2ccc(O)c(C(C)(C)C)c2)cc(C(C)(C)C)c1O (stereo unspecified)
GHS category: 5

Cc1c(CC(=O)O)c2c(n1CC(C)C)CC(C)(C)CC2=O
GHS category: 5

COC1(C)CCCCCCCCCCC1
GHS category: 5

CCCC=CCC1CCCC1=O (stereo unspecified)
GHS category: 5

COc1ccc(Cl)cc1C(=O)NCCc1ccc(S(=O)(=O)NC(=O)NC2CCCCC2)cc1
GHS category: 5

COc1ccc(C(=O)OC2=C(C(=O)Nc3ccccn3)N(C)S(=O)(=O)c3ccsc32)cc1
GHS category: 2
